Data as given in US20020002202A1, “Use of fumarate salt of L-carnitine or its alkanoyl derivatives in ischaemia” (priority 1998, published 2002).
“Also recorded” adds a separate entry of the source.

Key:
Perfused Heart = assay: low-pressure or low-flow ischemia model, perfused heart (Langendorff)
Source text: In this example, the low-pressure or low-flow ischemia model was used, which is a model recognised as valid for cardiac ischemia (Bolukoglu, H. et al. Am. J. Physiol. 1996: 270; H817-26).
The treatment schedule is illustrated in FIG. 1, in which the letters A-F denote the heart effluent sampling times for the measurement of metabolites. The hearts are removed from the animals and mounted on a Langerdorff appliance. The perfusion medium replacing the blood was a Krebs-Heinsleit standard bicarbonate buffer containing glucose 12 mM as energy source for cardiac metabolism.
After 30 minute perfusion at a pressure of 100 cm of water, ischemia was induced by reducing the perfusion pressure of the heart to 25 cm of water, thus reducing coronary flow from approximately 2 ml/min to approximately 0.3 ml/min. Reduction of the perfusion pressure gives rise to ischemia, since the heart will pump the fluid in the low-perfusion area rather than via the coronary bloodstream, supplying the flow to the heart.
This control model was compared with hearts perfused with L-carnitine 10 mM or L-carnitine fumarate 10 mM.
Cardiac function was tested in three different ways.
In the first, the NRM ^31P signal was monitored in real time.
This signal provides the best indication of the energy status of the heart.
In the second, the haemodynamics of the heart was measured by means of a pressure transducer mounted to measure the perfusion pressure. The haemodynamic measurements include heart rate, relative dP/dt (measurement of the contraction force of the heart) and the cardiac contraction amplitude. Coronary flow was also measured as an indicator of the heart's ability to provide oxygen and energy for its own metabolism.
In the third type of test, the metabolites and the enzyme LDH released by the heart were analysed in the effluent. The release of LDH indicates damage to cardiac tissue. The release of metabolites by the heart was tested by means of mass spectrometry coupled with gas chromatography.
The procedures of example 1 were substantially repeated, with the addition of a treatment with carnitine alone as a further control.

[1] = amount equivalent to the exogenous L-carnitine required; cited from earlier work
[2] = heart effluent, GC-MS, low-flow ischemia, 10 mM, vs control hearts

## C[N+](C)(C)C[C@H](O)CC(=O)[O-] [L-carnitine]
Perfused Heart; 31P NMR, FIG. 2, after 40 minutes of ischemia, Example 2
  ATP phosphate peaks (alpha, beta, gamma): lacking
[1]
  gastrointestinal disorders (increased volume and fluidity of faeces and frequency of bowel movements): caused

## C[N+](C)(C)C[C@H](O)CC(=O)[O-].O=C(O)C(O)C(O)C(=O)O [L-carnitine L-tartrate]
[1]
  gastrointestinal disorders (increased volume and fluidity of faeces and frequency of bowel movements): caused

## L-carnitine acid fumarate [L-carnitine fumarate]
Perfused Heart; 31P NMR, after 45 minutes of ischemia, 10 mM, vs control hearts
  reserves of high-energy phosphate (creatine phosphate observed at NMR): greater
Perfused Heart; heart effluent, FIG. 3, as compared to lactate, Example 2
  succinate released by the heart: low amount
Perfused Heart; [2]
  lactate released by the heart: less and reduction
  release of malate: more
Perfused Heart; heart effluent, low-flow ischemia, 10 mM in perfusion medium, vs control hearts
  release of LDH: reduced; also recorded: affords protection against ischemic damage
Perfused Heart; postischemic, 10 mM, vs control hearts
  coronary flow: greater
Perfused Heart; pressure transducer, 10 mM, vs control hearts
  postischemic cardiac contraction amplitude: greater
[1]
  gastrointestinal disorders (increased volume and fluidity of faeces and frequency of bowel movements): eliminated
